Consider three compounds from article PMC4379058, “The Biochemical Properties of the Arabidopsis Ecto-Nucleoside Triphosphate Diphosphohydrolase AtAPY1 Contradict a Direct Role in Purinergic Signaling” (PLoS ONE, 2015).

SMILES strings stand for the structures.

Common to all, as to assay: discontinuous molybdate phosphate release assay
In test [1] the target is T1, AtAPY1 (Arabidopsis thaliana, UniProt Q9SQG2).
T1 sequence (Q9SQG2 1-471): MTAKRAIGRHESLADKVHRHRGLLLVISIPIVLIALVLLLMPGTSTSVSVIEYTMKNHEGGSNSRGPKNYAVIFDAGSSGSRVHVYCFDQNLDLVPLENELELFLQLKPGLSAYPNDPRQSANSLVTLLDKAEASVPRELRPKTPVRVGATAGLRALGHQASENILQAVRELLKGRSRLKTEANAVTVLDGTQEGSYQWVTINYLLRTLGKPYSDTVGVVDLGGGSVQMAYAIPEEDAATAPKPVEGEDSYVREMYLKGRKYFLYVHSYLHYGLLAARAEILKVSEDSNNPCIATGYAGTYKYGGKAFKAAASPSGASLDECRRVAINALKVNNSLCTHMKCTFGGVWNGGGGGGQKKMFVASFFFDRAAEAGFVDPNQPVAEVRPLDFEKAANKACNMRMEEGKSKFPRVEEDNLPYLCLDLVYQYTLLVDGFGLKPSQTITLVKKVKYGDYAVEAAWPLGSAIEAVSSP
Further details: gene APY1. To be noted: 3 mM UDP substrate, 1 mM MgCl2, pH 6.5, 30°C.

Test [2] concerns the target T2, AtAPY1-GFP (Arabidopsis thaliana, UniProt Q9SQG2).
T2 construct: gene APY1; full-length, C-terminal GFP fusion (GFP from residue 472; 80 kDa), 35S transgenic Arabidopsis seedlings, immobilised on anti-GFP plate
T2 sequence (Q9SQG2 1-471): T1 sequence (Q9SQG2 1-471)
The class given is biochemical. The settings on record: 3 mM UDP substrate, 2 mM MgCl2, pH 6.5, 30°C; immobilised enzyme.

Test [3] concerns the target T1, AtAPY1. The class given is biochemical. Further details: gene APY1; full-length with TM, C-terminal linker and His6 tag, HEK293 cells; Ni-NTA elution fraction, not enriched; 52 kDa theoretical.
Test [4] deals with T3, AtAPY1-δTM (Arabidopsis thaliana, UniProt Q9SQG2).
T3 construct: gene APY1; 45 kDa theoretical
T3 sequence (Q9SQG2 67-470): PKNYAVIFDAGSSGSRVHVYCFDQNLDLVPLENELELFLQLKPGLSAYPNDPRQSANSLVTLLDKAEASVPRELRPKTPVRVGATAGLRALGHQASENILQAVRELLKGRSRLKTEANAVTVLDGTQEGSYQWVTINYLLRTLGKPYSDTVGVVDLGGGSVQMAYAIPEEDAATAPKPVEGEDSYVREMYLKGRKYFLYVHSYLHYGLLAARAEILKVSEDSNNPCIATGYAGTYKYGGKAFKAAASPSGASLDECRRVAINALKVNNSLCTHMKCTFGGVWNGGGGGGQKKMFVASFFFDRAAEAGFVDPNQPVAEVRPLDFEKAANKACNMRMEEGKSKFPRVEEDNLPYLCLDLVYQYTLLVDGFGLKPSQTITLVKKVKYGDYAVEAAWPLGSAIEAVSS
The class given is biochemical.

For `[O]=[V]([OH])([OH])[OH]` [vanadate], the % inhibition (as a rule, the percentage by which the read-out fell short of the control) at 1 mM in test [1] is listed as 54%. In addition, the “% inhibition” value in test [2] was “The same inhibition pattern was found for AtAPY1-GFP”.

On to `O=c1ccn([C@@H]2O[C@H](COP(=O)(O)OP(=O)(O)O)[C@@H](O)[C@H]2O)c(=O)[nH]1` [UDP], for which the “discontinuous molybdate phosphate release assay” value was “only GDP, IDP and UDP were hydrolyzed by AtAPY1” in test [3]; “AtAPY1 with or without TM is limited to the nucleotides GDP, IDP and UDP” in test [4].

Turning to `Nc1nc2c(ncn2[C@@H]2O[C@H](COP(=O)(O)OP(=O)(O)O)[C@@H](O)[C@H]2O)c(=O)[nH]1` [GDP], the “discontinuous molybdate phosphate release assay” value in test [3] was “only GDP, IDP and UDP were hydrolyzed by AtAPY1”; in test [4] it was “AtAPY1 with or without TM is limited to the nucleotides GDP, IDP and UDP”.
